Measurements published in ChEMBL document CHEMBL3039007, “Structure-based identification of OATP1B1/3 inhibitors” (Mol Pharmacol, 2013).

What was measured:
[1] = target: T1, Solute carrier organic anion transporter family member 1B1 (Homo sapiens, UniProt Q9Y6L6); conditions: chinese hamster, cho, 10 µM
T1 sequence (Q9Y6L6 whole entry): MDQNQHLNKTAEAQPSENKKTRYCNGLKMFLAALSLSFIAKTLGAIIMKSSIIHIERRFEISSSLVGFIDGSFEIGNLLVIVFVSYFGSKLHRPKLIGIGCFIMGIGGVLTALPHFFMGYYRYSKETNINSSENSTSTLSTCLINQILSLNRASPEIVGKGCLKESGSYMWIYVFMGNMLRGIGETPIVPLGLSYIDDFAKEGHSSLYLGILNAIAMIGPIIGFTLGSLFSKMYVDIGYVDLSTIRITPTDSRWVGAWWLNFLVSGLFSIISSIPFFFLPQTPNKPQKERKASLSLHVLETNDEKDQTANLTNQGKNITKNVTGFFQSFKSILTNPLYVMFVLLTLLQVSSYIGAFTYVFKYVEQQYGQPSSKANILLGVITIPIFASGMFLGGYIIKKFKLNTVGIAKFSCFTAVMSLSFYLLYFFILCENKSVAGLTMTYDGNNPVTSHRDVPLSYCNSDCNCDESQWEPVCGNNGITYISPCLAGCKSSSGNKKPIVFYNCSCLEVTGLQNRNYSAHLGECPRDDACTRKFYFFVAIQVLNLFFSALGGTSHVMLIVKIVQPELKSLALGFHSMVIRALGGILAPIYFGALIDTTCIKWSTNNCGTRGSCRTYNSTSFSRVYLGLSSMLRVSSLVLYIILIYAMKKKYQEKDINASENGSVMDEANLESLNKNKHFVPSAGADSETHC

[2] = target: T2, Solute carrier organic anion transporter family member 1B3 (Homo sapiens, UniProt Q9NPD5)
T2 sequence (Q9NPD5 whole entry): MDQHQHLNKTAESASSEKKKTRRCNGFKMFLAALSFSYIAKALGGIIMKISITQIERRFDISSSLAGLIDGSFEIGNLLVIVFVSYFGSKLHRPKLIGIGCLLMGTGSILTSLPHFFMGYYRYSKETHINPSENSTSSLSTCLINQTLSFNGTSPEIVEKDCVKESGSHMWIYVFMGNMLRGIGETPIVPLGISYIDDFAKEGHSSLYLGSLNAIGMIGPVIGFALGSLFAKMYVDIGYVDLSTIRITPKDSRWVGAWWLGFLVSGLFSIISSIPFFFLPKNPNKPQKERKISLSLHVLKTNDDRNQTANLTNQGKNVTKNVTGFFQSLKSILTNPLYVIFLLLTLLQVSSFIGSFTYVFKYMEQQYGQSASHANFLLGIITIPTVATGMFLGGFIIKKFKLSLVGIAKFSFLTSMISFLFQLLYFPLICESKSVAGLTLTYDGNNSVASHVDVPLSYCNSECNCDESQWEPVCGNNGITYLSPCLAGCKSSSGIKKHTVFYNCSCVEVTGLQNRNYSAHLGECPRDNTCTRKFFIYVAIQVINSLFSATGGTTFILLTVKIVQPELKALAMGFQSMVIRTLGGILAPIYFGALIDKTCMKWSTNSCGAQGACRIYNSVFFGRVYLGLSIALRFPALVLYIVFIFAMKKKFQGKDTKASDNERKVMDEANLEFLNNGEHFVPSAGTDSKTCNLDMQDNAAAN

[3] = target: T1, Solute carrier organic anion transporter family member 1B1
[4] = target: T1, Solute carrier organic anion transporter family member 1B1; remark: listed apart in the source
[5] = target: T2, Solute carrier organic anion transporter family member 1B3; remark: listed apart in the source
[6] = target: T2, Solute carrier organic anion transporter family member 1B3; conditions: chinese hamster, cho, 10 µM

For `C=C1[C@@H]2CC[C@@]3(C)[C@H](c4ccoc4)OC(=O)C[C@]13O[C@H]1CC(=O)C(C)(C)[C@H](C(OC(C)=O)C(=O)OC)[C@]12C` (some centres not stated) [METHYL 6-ACETOXYANGOLENSATE], the residual activity [1] was 11.95%, the IC50 [2] was 3800 nM and the Ki [3] was 800 nM. It also gave an IC50 [4] of 1450 nM, a Ki [5] of 2920 nM and a residual activity [6] of 34.99%.
Work on `CC(C)=CCC[C@]1(C)C=Cc2c(O)c3c(c(CC=C(C)C)c2O1)O[C@]12C(C[C@@H]4C[C@H]1C(C)(C)O[C@@]2(C/C=C(/C)C(=O)O)C4O)C3=O` (some centres not stated) yielded a residual activity [1] of 12.48%, an IC50 [2] of 2820 nM and a Ki [3] of 1100 nM. It also gave an IC50 [4] of 2000 nM, a Ki [5] of 2160 nM and a residual activity [6] of 4.414%.
With `CC1(C)C(=O)CC[C@]2(C)[C@@H]1C[C@@H](O)[C@]1(C)C3=CC(=O)O[C@H](c4ccoc4)[C@@]3(C)CC[C@@H]21` the residual activity [1] was 54.82%, the IC50 [2] was 3310 nM and the Ki [3] was 3440 nM. It also gave an IC50 [4] of 6310 nM, a Ki [5] of 2550 nM and a residual activity [6] of 48.28%.
`CCCc1nc2c(C)cc(-c3nc4ccccc4n3C)cc2n1Cc1ccc(-c2ccccc2C(=O)O)cc1` was tested, and the residual activity [1] was 77.57%, the IC50 [2] was 1260 nM and the Ki [3] was 1030 nM. It also gave an IC50 [4] of 1860 nM, a Ki [5] of 960 nM and a residual activity [6] of 41.88%.
Work on `CCOC(=O)CCC(=O)O[C@H]1[C@H](O[C@@H]2[C@@H](C)[C@H](O[C@H]3C[C@@](C)(OC)[C@@H](O)[C@H](C)O3)[C@@H](C)C(=O)O[C@H](CC)[C@@](C)(O)[C@H](O)[C@@H](C)C(=O)[C@H](C)C[C@@]2(C)O)O[C@H](C)C[C@@H]1N(C)C` [ERYTHROMYCIN ETHYLSUCCINATE] yielded a residual activity [1] of 3.592%, an IC50 [2] of 2090 nM and a Ki [3] of 1670 nM. For the same compound, the IC50 [4] was 3020 nM, the Ki [5] was 1610 nM and the residual activity [6] was 30.5%.
`CCCc1nc(C(C)(C)O)c(C(=O)OCc2oc(=O)oc2C)n1Cc1ccc(-c2ccccc2-c2nnn[nH]2)cc1` [OLMESARTAN MEDOXOMIL] was tested, and the residual activity [1] was 15.39%, the IC50 [2] was 977 nM and the Ki [3] was 540 nM. For the same compound, the IC50 [4] was 977 nM, the Ki [5] was 750 nM and the residual activity [6] was 9.702%.
Work on `CC[C@@H](C(=O)[C@@H](C)[C@@H](O)[C@H](C)CCc1ccc(C)c(O)c1C(=O)[O-])[C@H]1O[C@](CC)([C@H]2CC[C@](O)(CC)[C@H](C)O2)C[C@@H]1C.[Na+]` [LASALOCID A SODIUM] yielded a residual activity [1] of 10.29%, an IC50 [2] of 776 nM and a Ki [3] of 260 nM. For the same compound, the IC50 [4] was 479 nM, the Ki [5] was 590 nM and the residual activity [6] was 6.678%.
`Cc1onc(-c2c(Cl)cccc2Cl)c1C(=O)N[C@@H]1C(=O)N2[C@@H]1SC(C)(C)[C@@H]2C(=O)[O-].O.[Na+]` [DICLOXACILLIN SODIUM] was tested, and the residual activity [1] was 11.45%, the IC50 [2] was 2000 nM and the Ki [3] was 370 nM. It also gave an IC50 [4] of 676 nM, a Ki [5] of 1550 nM and a residual activity [6] of 9.757%.
`CC(C)C1=CC2=CC[C@@H]3[C@](C)(CCC[C@@]3(C)C(=O)O)[C@H]2CC1` [ABIETIC ACID] gave a residual activity [1] of 7.365%, an IC50 [2] of 5250 nM and a Ki [3] of 1470 nM. The IC50 [4] was 2690 nM, the Ki [5] was 4080 nM and the residual activity [6] was 33.77%.
Compound `O=c1c(-c2ccc(O)cc2)coc2cc(O)cc(O)c12` [GENISTEIN] has a residual activity [1] of 95.56%, an IC50 [2] of 3890 nM and a Ki [3] of 5000 nM. The IC50 [4] was 9120 nM, the Ki [5] was 2960 nM and the residual activity [6] was 39.06%.
Compound `C=C1[C@@H]2CC[C@@]3(C)[C@H](c4ccoc4)OC(=O)C[C@]13O[C@H]1C[C@H](OC(C)=O)C(C)(C)[C@H](CC(=O)OC)[C@]12C` has a residual activity [1] of 13.98%, an IC50 [2] of 4470 nM and a Ki [3] of 510 nM. It also gave an IC50 [4] of 933 nM, a Ki [5] of 3470 nM and a residual activity [6] of 21.87%.
`CC(=O)OC/C=C(C)/C=C/C=C(C)/C=C/C1=C(C)CCCC1(C)C` [GILRETINOL ACETATE] gave a residual activity [1] of 19.44%, an IC50 [2] of 5010 nM and a Ki [3] of 1220 nM. It also gave an IC50 [4] of 2240 nM, a Ki [5] of 3890 nM and a residual activity [6] of 23.53%.
Compound `CCC(=O)O[C@H]1[C@H](O[C@@H]2[C@@H](C)[C@H](O[C@H]3C[C@@](C)(OC)[C@@H](O)[C@H](C)O3)[C@@H](C)C(=O)O[C@H](CC)[C@@](C)(O)[C@H](O)[C@@H](C)C(=O)[C@H](C)C[C@@]2(C)O)O[C@H](C)C[C@@H]1N(C)C.CCCCCCCCCCCCOS(=O)(=O)O` [ERYTHROMYCIN ESTOLATE] has a residual activity [1] of 6.903%, an IC50 [2] of 3090 nM and a Ki [3] of 2410 nM. The IC50 [4] was 4370 nM, the Ki [5] was 2350 nM and the residual activity [6] was 7.433%.
Work on `C=CC1=C(C)/C(=C/c2[nH]c(Cc3[nH]c(/C=C4\NC(=O)C(C)=C4C=C)c(C)c3CCC(=O)O)c(CCC(=O)O)c2C)NC1=O` [BILIRUBIN] yielded a residual activity [1] of 15.29%, an IC50 [2] of 3390 nM and a Ki [3] of 720 nM. The IC50 [4] was 1320 nM, the Ki [5] was 2630 nM and the residual activity [6] was 32.05%.
Compound `COc1cc(C2Oc3cc([C@H]4Oc5cc(O)cc(O)c5C(=O)[C@@H]4O)ccc3OC2CO)ccc1O` (some centres not stated) [SILIBININ] has a residual activity [1] of 54.77%, an IC50 [2] of 4270 nM and a Ki [3] of 3370 nM. The IC50 [4] was 6170 nM, the Ki [5] was 3270 nM and the residual activity [6] was 46.89%.
`O=C(O)c1cc2ccccc2c(Cc2c(O)c(C(=O)O)cc3ccccc23)c1O.OCCOCCN1CCN(C(c2ccccc2)c2ccc(Cl)cc2)CC1` [HYDROXYZINE PAMOATE] was tested, and the residual activity [1] was 12.16%, the IC50 [2] was 1230 nM and the Ki [3] was 450 nM. For the same compound, the IC50 [4] was 813 nM, the Ki [5] was 940 nM and the residual activity [6] was 13.57%.
For `CC(=O)O[C@@H]1C[C@@H]2C(C)(C)[C@H](O)C=C[C@@]2(C)[C@@H]2CC[C@@]3(C)C(=CC(=O)O[C@@H]3c3ccoc3)[C@@]12C`, the residual activity [1] was 6.132%, the IC50 [2] was 3720 nM and the Ki [3] was 1210 nM. For the same compound, the IC50 [4] was 2190 nM, the Ki [5] was 2890 nM and the residual activity [6] was 23.16%.
In the case of `COC(=O)CC[C@@H](C)[C@H]1CC[C@H]2[C@@H]3[C@H](O)C[C@@H]4C[C@H](O)CC[C@]4(C)[C@H]3C[C@H](O)[C@]12C` [CHOLIC ACID, METHYL ESTER], the residual activity [1] is reported as 26.02%, the IC50 [2] is reported as 3720 nM and the Ki [3] is reported as 4580 nM. The IC50 [4] was 8320 nM, the Ki [5] was 2890 nM and the residual activity [6] was 40.87%.
`COC(=O)C[C@H]1C2(C)CC34OC5(C)O[C@@]6([C@H](OC)C(OC(=O)C(C)C)[C@]7(C)C(/C(=C(/OC)C(C)C)C(=O)O[C@H]7c7ccoc7)[C@@]6(O5)[C@H](OC)[C@@]3(OC)C2OC(C)=O)[C@]14C` (some centres not stated) [CHUKRASIN METHYL ETHER] was tested, and the residual activity [1] was 6.829%, the IC50 [2] was 724 nM and the Ki [3] was 420 nM. It also gave an IC50 [4] of 759 nM, a Ki [5] of 560 nM and a residual activity [6] of 3.762%.
Compound `C/C=C(\C)C(=O)O[C@H]1[C@H](OC(C)=O)[C@@]2(CO)C(CC1(C)C)C1=CC[C@@H]3[C@@]4(C)CC[C@H](O[C@@H]5O[C@H](C(=O)O)[C@@H](O[C@@H]6O[C@H](CO)[C@@H](O)[C@H](O)[C@H]6O)[C@H](O)[C@H]5O[C@@H]5O[C@H](CO)[C@@H](O)[C@H](O)[C@H]5O)[C@H](CO)C4CC[C@@]3(C)[C@@]1(C)C[C@H]2O` (stereo partly drawn) [beta-ESCIN] has a residual activity [1] of 11.04%, an IC50 [2] of 3390 nM and a Ki [3] of 780 nM. For the same compound, the IC50 [4] was 1410 nM, the Ki [5] was 2610 nM and the residual activity [6] was 11.66%.
Compound `COc1c(CC=C(C)C)c2c(c3oc(=O)c(-c4ccc(O)cc4)c(O)c13)C=CC(C)(C)O2` [SCANDENIN] has a residual activity [1] of 13.79%, an IC50 [2] of 741 nM and a Ki [3] of 590 nM. It also gave an IC50 [4] of 1070 nM, a Ki [5] of 560 nM and a residual activity [6] of 9.001%.
`O=C(O[C@@H]1Cc2c(O)cc(O)cc2O[C@@H]1c1ccc(O)c(O)c1)c1cc(O)c(O)c(O)c1` [EPICATECHIN GALLATE] was tested, and the residual activity [1] was 46.4%, the IC50 [2] was 4470 nM and the Ki [3] was 2070 nM. The IC50 [4] was 3800 nM, the Ki [5] was 3460 nM and the residual activity [6] was 25.25%.
